Results as given in patent US4452784A, “C-23-Modified derivatives of DMT” (Eli Lilly and Company, priority 1982, dated 1984).
In brackets after ≈: the same amount, converted by molar mass. Where two headings read alike, the source gives them in different places.

How the values were obtained:
[1] = test system: Streptococcus Group D X66; assay: Antibiotic activity, standard agar-dilution assay (MIC); type: cell-based
Method: (§1) The MIC's in Table III were determined by standard agar-dilution assays. The MIC's in Table IV were obtained using a conventional broth-dilution microtiter test.
(§2) Antibiotic Activity of C-23 Modified Derivatives of DMT^a

[2] = test system: Streptococcus pneumoniae Park I; assay: as above; type: cell-based; conditions: S. pneumoniae Park I
Method: as §1, §2

[3] = test system: Staphylococcus aureus S13E; assay: as above; type: cell-based
Method: as §1, §2

[4] = test system: Staphylococcus aureus X1.1; assay: as above; type: cell-based; conditions: S. aureus X1.1
Method: as §1, §2

[5] = test system: Streptococcus pyogenes C203; assay: as above; type: cell-based; conditions: S. pyogenes C203
Method: as §1, §2

[6] = test system: Staphylococcus aureus V41; assay: as above; type: cell-based
Method: as §1, §2

[7] = test system: Staphylococcus aureus X400; assay: as above; type: cell-based
Method: as §1, §2

Streptococcus Group 9960 = assay: as above; type: cell-based; conditions: GROUP9960
Method: as §1, §2

[8] = test system: Staphylococcus epidermidis EPI2; assay: as above; type: cell-based; conditions: S. epidermidis EPI2
Method: as §1, §2

[9] = test system: Haemophilus influenzae Holt; assay: as above; type: cell-based; conditions: H. influenzae Holt, ampicillin-sensitive strain
Method: as §1, §2

[10] = test system: Staphylococcus epidermidis EPI1; assay: as above; type: cell-based; conditions: S. epidermidis EPI1
Method: as §1, §2

[11] = test system: Streptococcus pyogenes C203; assay: ED50 in mice experimentally infected with S. pyogenes C203; type: in vivo; conditions: doses given 1 and 4 hours postinfection
Method: The C-23 modified derivatives of DMT of this invention have shown in vivo antimicrobial activity against experimentally-induced infections in laboratory animals. When two doses of test compound were administered to mice experimentally infected with S. pyogenes C203, the activity observed was measured as an ED50 value [effective dose in mg/kg to protect 50% of the test animals: see Warren Wick, et al., J. Bacteriol. 81, 233-235 (1961)].
^a mg/kg × 2; doses given 1 and 4 hours postinfection

[12] = test system: Pasteurella multocida 60A; assay: Antibiotic activity, broth-dilution microtiter test (MIC); type: cell-based; conditions: P. multocida 60A, avian isolate
Method: as §1
(§3) Antibiotic Activity of DMT Derivatives^a

[13] = test system: Pasteurella multocida 40G; assay: as above; type: cell-based; conditions: P. multocida 40G
Method: as §1, §3

Mycoplasma gallisepticum [14] = assay: as above; type: cell-based; conditions: Mycoplasmoides gallisepticum, M. gallisepticum
Method: as §1, §3

Mycoplasma hyorhinis = assay: as above; type: cell-based
Method: as §1, §3

[15] = test system: Pasteurella multocida 22A; assay: as above; type: cell-based; conditions: P. multocida 22A
Method: as §1, §3

[16] = test system: Pasteurella hemolytica 41D; assay: as above; type: cell-based; conditions: P. hemolytica 41D
Method: as §1, §3

Staphylococcus aureus = assay: as above; type: cell-based; conditions: S. aureus
Method: as §1, §3

[17] = test system: Pasteurella hemolytica 23C; assay: as above; type: cell-based; conditions: P. hemolytica 23C
Method: as §1, §3

Mycoplasma synoviae = assay: as above; type: cell-based; conditions: Mycoplasmopsis synoviae, M. synoviae
Method: as §1, §3

[18] = test system: Pasteurella hemolytica 22C; assay: as above; type: cell-based
Method: as §1, §3

Streptococcus bovis 80 = assay: as above; type: cell-based; conditions: S. bovis 80
Method: as §1, §3

[19] = test system: Pasteurella multocida 68C; assay: as above; type: cell-based; conditions: P. multocida 68C
Method: as §1, §3

[20] = test system: Pasteurella multocida 17E; assay: as above; type: cell-based; conditions: P. multocida 17E, bovine isolate
Method: as §1, §3

Mycoplasma gallisepticum [21] = assay: Antimycoplasmal activity of DMT derivatives in chicks; type: in vivo; conditions: for Number with Antibodies/Number Tested: antibodies to M. gallisepticum
Method: In these tests infections were induced in chicks by injecting 0.2 ml. of a broth culture of M. gallisepticum into the abdominal air sac of two- to three-day-old chicks. The compounds were administered subcutaneously at a dose of 60 mg/kg once only on the day of infection or, at the same level, two times on the day of infection and two times on the first day post-infection. Twenty-one days post-infection, the chicks were weighed, a blood sample was taken, and the chicks were sacrificed. The presence or absence of air-sac lesions was recorded.

[22] = test system: Haemophilus influenzae R52; assay: Antibiotic activity, standard agar-dilution assay (MIC); type: cell-based; conditions: H. influenzae R52, ampicillin-resistant strain
Method: as §1, §2

[23] = agar dilution, Streptococcus Group D X66, read-out: MIC
[24] = agar dilution, S. aureus V41, penicillin-resistant strain, read-out: MIC
[25] = agar dilution, S. aureus X400, methicillin-resistant strain, read-out: MIC
[26] = broth-dilution microtiter, M. hyorhinis, read-out: MIC
[27] = broth-dilution microtiter, P. hemolytica 22C, read-out: MIC
[28] = subcutaneous 60 mg/kg × 1, 21 days post-infection
[29] = subcutaneous 60 mg/kg × 4, 21 days post-infection

Compound | MIC [2] [µg/mL] | MIC [3] [µg/mL] | MIC [4] [µg/mL] | MIC [5] [µg/mL] | MIC (Streptococcus Group 9960) [µg/mL] | MIC [8] [µg/mL] | MIC [9] [µg/mL] | MIC [10] [µg/mL] | ED50 ([11]; C203, oral) [mg/kg] | ED50 ([11]; C203, sc, subcutaneous) [mg/kg] | MIC [12] [µg/mL] | MIC [13] [µg/mL] | MIC (Mycoplasma gallisepticum [14]) [µg/mL] | MIC [15] [µg/mL] | MIC [16] [µg/mL] | MIC (Staphylococcus aureus) [µg/mL] | MIC [17] [µg/mL] | MIC (Mycoplasma synoviae) [µg/mL] | MIC (Streptococcus bovis 80) [µg/mL] | MIC [19] [µg/mL] | other results
CCC1OC(=O)CC(O)C(C)C(OC2OC(C)C(OC3CC(C)(O)C(O)C(C)O3)C(N(C)C)C2O)C(CC=O)CC(C)C(=O)C=CC(C)=CC1CSc1ccccc1 (centres unmarked) [Compound 4, 23-Deoxy-23-(phenyl)thio-DMT] | 0.03 (≈ 0.036 µM) | 0.5 (≈ 0.599 µM) | 0.5 (≈ 0.599 µM) | 0.125 (≈ 0.15 µM) | 0.125 (≈ 0.15 µM) | 0.5 (≈ 0.599 µM) | 4 (≈ 4.8 µM) | 0.5 (≈ 0.599 µM) | 71 | < 25 | 6.25 (≈ 7.49 µM) | 6.25 (≈ 7.49 µM) | ≤ 0.05 | 12.5 (≈ 15 µM) | 12.5 (≈ 15 µM) | 0.39 (≈ 0.468 µM) | 25 (≈ 30 µM) | 0.19 (≈ 0.228 µM) | 0.19 (≈ 0.228 µM) | 12.5 (≈ 15 µM) | MIC [1, 23]: 0.25 µg/mL (≈ 0.3 µM); MIC [6, 24]: 0.25 µg/mL (≈ 0.3 µM); MIC [7, 25]: 0.5 µg/mL (≈ 0.599 µM); MIC (Mycoplasma hyorhinis; [26]): 0.78 µg/mL (≈ 0.935 µM); MIC [18, 27]: 25 µg/mL (≈ 30 µM); MIC [20]: 6.25 µg/mL (≈ 7.49 µM); Number with Antibodies/Number Tested (Mycoplasma gallisepticum [21]; [28]): 8/10; Number with Antibodies/Number Tested (Mycoplasma gallisepticum [21]; [29]): 7/10; Mortality (Mycoplasma gallisepticum [21]; [28]): 0/10; Number with Air-Sac Lesions/Number Treated (Mycoplasma gallisepticum [21]; [28]): 7/10; Mortality (Mycoplasma gallisepticum [21]; [29]): 0/10; Number with Air-Sac Lesions/Number Treated (Mycoplasma gallisepticum [21]; [29]): 3/10
CCC1OC(=O)CC(O)C(C)C(OC2OC(C)C(OC3CC(C)(O)C(O)C(C)O3)C(N(C)C)C2O)C(CC=O)CC(C)C(=O)C=CC(C)=CC1CN (centres unmarked) [Compound 2, 23-Deoxy-23-amino-DMT] | 0.5 (≈ 0.675 µM) | 4 (≈ 5.4 µM) | 2 (≈ 2.7 µM) | 1 (≈ 1.35 µM) | 8 (≈ 10.8 µM) | 8 (≈ 10.8 µM) | 16 (≈ 21.6 µM) | 4 (≈ 5.4 µM) | > 100 | < 1.5 | 12.5 (≈ 16.9 µM) | 12.5 (≈ 16.9 µM) | 1.56 (≈ 2.11 µM) | 12.5 (≈ 16.9 µM) | 12.5 (≈ 16.9 µM) | 6.25 (≈ 8.44 µM) | 12.5 (≈ 16.9 µM) | 0.78 (≈ 1.05 µM) | 1.56 (≈ 2.11 µM) | 12.5 (≈ 16.9 µM) | MIC [1, 23]: 8 µg/mL (≈ 10.8 µM); MIC [6, 24]: 8 µg/mL (≈ 10.8 µM); MIC [7, 25]: 8 µg/mL (≈ 10.8 µM); MIC [22]: 16 µg/mL (≈ 21.6 µM); MIC (Mycoplasma hyorhinis; [26]): 25 µg/mL (≈ 33.7 µM); MIC [18, 27]: 25 µg/mL (≈ 33.7 µM); MIC [20]: 6.25 µg/mL (≈ 8.44 µM)
CCC1OC(=O)CC(O)C(C)C(OC2OC(C)C(OC3CC(C)(O)C(O)C(C)O3)C(N(C)C)C2O)C(CC=O)CC(C)C(=O)C=CC(C)=CC1CN=[N+]=[N-] (centres unmarked) [Compound 1, 23-Deoxy-23-Azido-DMT] | 0.06 (≈ 0.0782 µM) | 0.25 (≈ 0.326 µM) | 0.25 (≈ 0.326 µM) | 0.125 (≈ 0.163 µM) | 0.25 (≈ 0.326 µM) | 0.25 (≈ 0.326 µM) | 8 (≈ 10.4 µM) | 0.25 (≈ 0.326 µM) | 68 | 10.5 | 6.25 (≈ 8.15 µM) | 6.25 (≈ 8.15 µM) | 0.19 (≈ 0.248 µM) | 12.5 (≈ 16.3 µM) | 25 (≈ 32.6 µM) | 1.56 (≈ 2.03 µM) | 25 (≈ 32.6 µM) | 0.78 (≈ 1.02 µM) | 0.39 (≈ 0.509 µM) | 6.25 (≈ 8.15 µM) | MIC [1]: 0.5 µg/mL (≈ 0.652 µM); MIC [6, 24]: 0.25 µg/mL (≈ 0.326 µM); MIC ([7]; X400): 0.5 µg/mL (≈ 0.652 µM); MIC [22]: 8 µg/mL (≈ 10.4 µM); MIC (Mycoplasma hyorhinis): > 50 µg/mL; MIC ([18]; 22C): 25 µg/mL (≈ 32.6 µM); MIC [20]: 6.25 µg/mL (≈ 8.15 µM); Number with Antibodies/Number Tested (Mycoplasma gallisepticum [21]; [28]): 5/10; Number with Antibodies/Number Tested (Mycoplasma gallisepticum [21]; [29]): 0/10; Mortality (Mycoplasma gallisepticum [21]; [28]): 0/10; Number with Air-Sac Lesions/Number Treated (Mycoplasma gallisepticum [21]; [28]): 3/10; Mortality (Mycoplasma gallisepticum [21]; [29]): 0/10; Number with Air-Sac Lesions/Number Treated (Mycoplasma gallisepticum [21]; [29]): 0/10
CCC1OC(=O)CC(O)C(C)C(OC2OC(C)C(OC3CC(C)(O)C(O)C(C)O3)C(N(C)C)C2O)C(CC=O)CC(C)C(=O)C=CC(C)=CC1CNC(=O)Cc1ccccc1 (centres unmarked) [Compound 3, 23-Deoxy-23-(phenylacetyl)amino-DMT] | 0.25 (≈ 0.291 µM) | 0.5 (≈ 0.582 µM) | 0.5 (≈ 0.582 µM) | 0.25 (≈ 0.291 µM) | 0.5 (≈ 0.582 µM) | 1 (≈ 1.16 µM) | 8 (≈ 9.31 µM) | 0.5 (≈ 0.582 µM) | > 100 | 3.8 | 25 (≈ 29.1 µM) | 25 (≈ 29.1 µM) | 0.09 (≈ 0.105 µM) | 50 (≈ 58.2 µM) | 25 (≈ 29.1 µM) | 1.56 (≈ 1.82 µM) | 25 (≈ 29.1 µM) | 0.39 (≈ 0.454 µM) | 0.19 (≈ 0.221 µM) | 25 (≈ 29.1 µM) | MIC [1, 23]: 0.5 µg/mL (≈ 0.582 µM); MIC ([6]; V41): 1 µg/mL (≈ 1.16 µM); MIC ([7]; X400): 1 µg/mL (≈ 1.16 µM); MIC [22]: 8 µg/mL (≈ 9.31 µM); MIC (Mycoplasma hyorhinis; [26]): 1.56 µg/mL (≈ 1.82 µM); MIC [18, 27]: 50 µg/mL (≈ 58.2 µM); MIC [20]: 12.5 µg/mL (≈ 14.6 µM); Number with Antibodies/Number Tested (Mycoplasma gallisepticum [21]; [28]): 8/9; Number with Antibodies/Number Tested (Mycoplasma gallisepticum [21]; [29]): 3/10; Mortality (Mycoplasma gallisepticum [21]; [28]): 1/10; Number with Air-Sac Lesions/Number Treated (Mycoplasma gallisepticum [21]; [28]): 8/10; Mortality (Mycoplasma gallisepticum [21]; [29]): 0/10; Number with Air-Sac Lesions/Number Treated (Mycoplasma gallisepticum [21]; [29]): 0/10
